Experimental findings from ChEMBL document CHEMBL1201862, “PubChem BioAssay data set” (2004) are described below.

A short description of test [1]: HeLa 2N DNA content increase, dose response, cell-based, IC50 (AID 1117349). Type of test: functional.
Test [2] is described as follows: HeLa 4N DNA content increase, dose response, cell-based, IC50 (AID 1117351). Type of test: functional.
The target in test [3] is T1, Bcl-2-related protein A1 (Mus musculus, UniProt Q07440).
T1 sequence (Q07440 whole entry): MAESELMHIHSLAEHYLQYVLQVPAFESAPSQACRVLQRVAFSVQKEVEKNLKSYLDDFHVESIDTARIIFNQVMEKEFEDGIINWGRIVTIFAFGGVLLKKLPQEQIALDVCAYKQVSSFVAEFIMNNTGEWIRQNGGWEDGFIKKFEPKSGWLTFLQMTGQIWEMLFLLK
The experiment in a line: Bfl-1 inhibitors, primary screen, biochemical, fluorescence polarization, FITC-Bid, mouse (AID 432).

Test [4] addresses Glyceraldehyde-3-phosphate dehydrogenase (Homo sapiens, UniProt P04406).
Test [5] concerns the target T1, Bcl-2-related protein A1. The experiment in a line: Bfl-1 inhibitors blocking BH3 peptide binding, confirmation, biochemical, TR-FRET, mouse Bfl-1 (AID 621).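 Further: TR-FRET binding of GST-Bfl-1 to FITC-labelled Bid peptide via terbium antibody.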 Background: TR-FRET usually uses a lanthanide donor and a delayed reading to cut background.
Test [6] addresses T1, Bcl-2-related protein A1. Kind of test: Bfl-1 binding inhibitors, SAR follow-up, biochemical, fluorescence polarization (AID 1070). Background: Polarisation of emitted light reports the rotation of a fluorescent probe.
Test [7] is described as follows: growth suppression of PTEN-null colon cells, dose response, cell-based, HCT116 PTEN knockout (AID 1047).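 Further: HCT116 colon tumor cells with PTEN knocked out; cells exposed to compound for 60 hours before readout; potency for loss of cell viability measured by luminescence.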 Type of test: functional.
Another test deals with Estrogen receptor beta (Homo sapiens, UniProt Q92731). Kind of test: ERβ–SRC-3 coactivator interaction inhibitors, confirmation, orthogonal assay, biochemical, ELISA, streptavidin-HRP readout (AID 1060).
Chain of Estrogen receptor beta (Q92731 whole entry): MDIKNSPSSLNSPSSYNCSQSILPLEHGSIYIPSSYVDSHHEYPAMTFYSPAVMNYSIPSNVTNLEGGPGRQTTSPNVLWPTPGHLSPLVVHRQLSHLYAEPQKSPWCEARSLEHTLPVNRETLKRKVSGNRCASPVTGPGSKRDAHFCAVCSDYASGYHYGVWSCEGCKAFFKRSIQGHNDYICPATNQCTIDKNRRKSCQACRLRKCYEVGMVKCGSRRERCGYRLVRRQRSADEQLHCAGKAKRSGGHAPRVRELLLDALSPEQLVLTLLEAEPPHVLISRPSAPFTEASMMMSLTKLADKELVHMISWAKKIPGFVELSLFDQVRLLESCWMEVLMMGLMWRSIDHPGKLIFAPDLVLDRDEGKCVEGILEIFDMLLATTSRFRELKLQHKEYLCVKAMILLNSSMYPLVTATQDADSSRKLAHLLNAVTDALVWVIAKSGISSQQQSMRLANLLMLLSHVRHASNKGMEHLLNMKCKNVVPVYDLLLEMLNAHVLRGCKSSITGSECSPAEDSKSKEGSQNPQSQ
Test [8] is described as follows: growth suppression of beta-catenin-knockout colon cells, dose response, cell-based, HCT116, human colon tumor (AID 1045).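 Further: HCT116 colon tumor cells with beta catenin knocked out; cells exposed to compound for 60 hours.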 In kind it is functional.
Test [9] deals with RNA-editing ligase 1, mitochondrial (Trypanosoma brucei brucei, UniProt P86926). Kind of test: TbREL1 ligase inhibitors, dose response, biochemical, fluorescence, Trypanosoma brucei (AID 1117295). In kind it is functional.
Chain of RNA-editing ligase 1, mitochondrial (P86926 whole entry): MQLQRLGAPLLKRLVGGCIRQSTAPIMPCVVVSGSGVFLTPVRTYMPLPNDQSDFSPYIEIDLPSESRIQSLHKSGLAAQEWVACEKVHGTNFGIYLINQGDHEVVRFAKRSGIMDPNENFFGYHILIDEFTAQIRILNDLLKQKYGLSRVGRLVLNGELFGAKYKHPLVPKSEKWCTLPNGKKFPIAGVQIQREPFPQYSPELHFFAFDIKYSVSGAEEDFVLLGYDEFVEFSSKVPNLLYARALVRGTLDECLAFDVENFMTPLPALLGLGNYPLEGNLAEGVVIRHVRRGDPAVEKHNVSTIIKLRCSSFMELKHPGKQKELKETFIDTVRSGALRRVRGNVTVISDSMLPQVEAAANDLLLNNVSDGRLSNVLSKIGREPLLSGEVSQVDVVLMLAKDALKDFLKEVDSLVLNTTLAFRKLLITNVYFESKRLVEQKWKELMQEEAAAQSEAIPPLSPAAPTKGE
For a further test, the target named is Transthyretin (Homo sapiens, UniProt P02766). Kind of test: Luminescence-based cell-based high throughput dose response assay to identify activators of Transthyretin (TTR) transcription. Type of test: functional.
The nature of test [10]: inhibitors of firefly luciferase expression or activity, dose response, H4 neuroglioma cells, luminescence (AID 1990). Type of test: functional, cell-based.
Test [11] relates to BJ. The experiment in a line: cytotoxicity toward BJ-TERT fibroblasts, dose response, cell-based, RAS-independent, luminescence (AID 1933). Type of test: functional. The note with it: Homo sapiens.
Test [12] is described as follows: Luminescence Cell-Based Dose Response HTS to Identify Inhibitors of 5'UTR Stem-Loop Driven Prion Protein mRNA Translation in H4 Neuroglioblastoma Cells. [Related pubchem assays: 1827 (Project Summary), 1813 (Primary HTS)]. In kind it is functional.
The nature of test [13]: inhibitors of SNCA 5'UTR-driven reporter translation, confirmation, H4 neuroglioma cells, luminescence (AID 1988). Type of test: functional, cell-based.
In test [14] the test system is BJ. Kind of test: cells. In kind it is functional, cell-based. To be noted: Homo sapiens.
A short description of test [15]: microbe, parasite or virus in culture. Type of test: functional. The note with it: Mycobacterium tuberculosis.
For test [16], the target named is Heat shock protein HSP 90-alpha (Homo sapiens, UniProt P07900). Kind of test: Luminescence-based dose response biochemical high throughput screening assay for inhibitors of the Heat Shock Protein 90 (HSP90). [Related pubchem assays: 1831 (Summary AID.), 1846 (Confirmation screen.), 1789 (Primary screen.)].
In test [17] the test system is BJ. Kind of test: cytotoxicity toward BJ-TERT-LT-ST fibroblasts, dose response, cell-based, RAS-independent, luminescence (AID 1935).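 Further: BJ fibroblasts immortalized with TERT plus LT and ST oncogenes.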 Type of test: functional. To be noted: Homo sapiens.
Test [18] can be described thus: cytotoxicity toward DRD oncogenic fibroblasts, dose response, cell-based, non-viral oncogenic, luminescence (AID 1934). In kind it is functional. To be noted: Homo sapiens.
Test [19] has as its target T2, Ubiquitin-conjugating enzyme E2 N (Homo sapiens, UniProt P61088).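 Further: Dose-response confirmation in a TR-FRET assay detecting UBC13-driven polyubiquitin chain formation, inhibition measured.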
T2 sequence (P61088 whole entry): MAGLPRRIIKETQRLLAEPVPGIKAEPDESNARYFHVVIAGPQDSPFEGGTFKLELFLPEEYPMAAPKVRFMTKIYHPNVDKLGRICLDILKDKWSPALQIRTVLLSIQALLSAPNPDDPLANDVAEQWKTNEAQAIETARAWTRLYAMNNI
Type of test: functional.

The nature of test [20]: luciferase reporter signal reduction – luminescence, H4-C neuroglioblastoma cells, dose response (AID 2458).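 Further: H4 neuroglioblastoma cells stably carrying a luciferase reporter gene fusion.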 Type of test: functional, cell-based. (In general: In a reporter assay the amount or activity of a reporter protein is the signal.)
The nature of test [21]: cells. Type of test: functional, cell-based.
The nature of test [22]: inhibitors of SNCA 5'UTR-driven translation, confirmation, luminescence, H4 neuroglioblastoma cells, dose confirmation (AID 2454).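 Further: H4 neuroglioblastoma cells carrying an alpha-synuclein 5'UTR luciferase reporter; potency for inhibition of the luciferase signal.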 Type of test: functional, cell-based.
Test [23] is described as follows: cytotoxicity in HEK-293T cells, dose response, cytotoxicity control for TCR NF-kB inhibitor project, luminescence, T-cell screen hits (AID 489026).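 Further: cells exposed to compound about 14 hours before the viability readout.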 In kind it is functional, cell-based.
Test [24] is described as follows: cells. Type of test: functional, cell-based. The source holds these as a separate data set.
The target in test [25] is T3, Nuclear receptor subfamily 0 group B member 1 (Homo sapiens, UniProt P51843).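 Further: HEK293T cells transfected with SF-1 and DAX-1 plus StAR promoter luciferase reporter.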
T3 sequence (P51843 whole entry): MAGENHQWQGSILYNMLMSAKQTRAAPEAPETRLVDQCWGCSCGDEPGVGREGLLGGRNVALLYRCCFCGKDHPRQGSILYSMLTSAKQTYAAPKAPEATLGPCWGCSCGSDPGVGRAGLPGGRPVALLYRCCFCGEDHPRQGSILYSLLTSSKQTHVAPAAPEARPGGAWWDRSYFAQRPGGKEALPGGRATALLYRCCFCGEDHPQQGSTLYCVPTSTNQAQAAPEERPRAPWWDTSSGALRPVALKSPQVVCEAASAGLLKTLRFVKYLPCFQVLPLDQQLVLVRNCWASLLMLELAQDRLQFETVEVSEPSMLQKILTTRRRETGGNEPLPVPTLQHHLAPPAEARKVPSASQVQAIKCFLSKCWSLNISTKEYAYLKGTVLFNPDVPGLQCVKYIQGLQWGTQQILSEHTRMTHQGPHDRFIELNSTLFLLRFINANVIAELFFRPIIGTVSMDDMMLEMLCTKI
Type of test: functional, cell-based.

For a further test, the target named is Paired box protein Pax-8 (Homo sapiens, UniProt Q06710). Kind of test: inhibitors of PAX8-driven TPO luciferase reporter, dose response, RMG-I cells, cherry-pick (AID 687027).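 Further: luciferase reporter driven by Pax8 target thyroperoxidase promoter measured by SteadyGlo luminescence.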 Type of test: functional, cell-based.
Chain of Paired box protein Pax-8 (Q06710 whole entry): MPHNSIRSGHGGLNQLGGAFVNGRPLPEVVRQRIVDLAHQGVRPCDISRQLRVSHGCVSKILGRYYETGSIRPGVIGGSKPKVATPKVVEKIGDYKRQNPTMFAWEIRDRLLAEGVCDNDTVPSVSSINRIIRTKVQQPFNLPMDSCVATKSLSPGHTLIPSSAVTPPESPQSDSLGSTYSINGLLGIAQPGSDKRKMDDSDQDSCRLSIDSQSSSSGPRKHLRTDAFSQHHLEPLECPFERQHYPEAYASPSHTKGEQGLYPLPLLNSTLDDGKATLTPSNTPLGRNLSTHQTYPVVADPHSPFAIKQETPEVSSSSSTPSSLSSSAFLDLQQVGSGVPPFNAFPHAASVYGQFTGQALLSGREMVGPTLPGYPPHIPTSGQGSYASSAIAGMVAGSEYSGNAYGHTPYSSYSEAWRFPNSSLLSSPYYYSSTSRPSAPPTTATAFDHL
Test [26] in a line: PAX2 cell-based inhibition, dose response, selectivity assay for PAX8 inhibitor project, plate reader, dry powder samples (AID 743048).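 Further: HEK293 cells carrying a WT1 promoter luciferase reporter driven by expressed Pax2; potency is for inhibition of Pax2 driven reporter signal.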 In kind it is functional.
The nature of test [27]: cytotoxicity in COV362 ovarian cancer cells, dose response, cytotoxicity control for PAX8 inhibitor project, cell-based, plate reader, dry powder, SA12 (AID 743144). Type of test: functional.
The nature of test [28]: IOSE-T80 ovarian epithelial cell cytotoxicity, dose response, cytotoxicity control for PAX8 inhibitor project, plate reader, dry powder samples (AID 743045). Type of test: functional, cell-based.
Test [29] in a line: A2780 ovarian cancer cell cytotoxicity, dose response, cytotoxicity control, plate reader, dry powder samples (AID 743046). In kind it is functional, cell-based.
The nature of test [30]: NIH:OVCAR-3 ovarian cancer cell cytotoxicity, dose response, PAX8 inhibitor project, plate reader, dry powder samples (AID 743044). Type of test: functional, cell-based.
A short description of test [31]: PAX5 activity inhibitors, dose response, selectivity assay for PAX8 inhibitor project, cell-based, plate reader, dry powder samples (AID 743047).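 Further: HEK293 cells carrying a Pax5 driven CD19 promoter luciferase reporter; potency of inhibitors that lower reporter luminescence.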 In kind it is functional.
A short description of test [32]: IGROV1 ovarian cancer cell cytotoxicity, dose response, PAX8 inhibitor project, plate reader, dry powder samples (AID 743043). The note with it: IGROV-1. In kind it is functional, cell-based.
Test [33] in a line: cytotoxicity in OVCAR4 cells, dose response, cytotoxicity control for PAX8 inhibitor project, cell-based, plate reader, dry powder, SA11 (AID 743150). Type of test: functional. To be noted: OVCAR-4.
The nature of test [34]: cytotoxicity in COV434 cells, dose response, cytotoxicity control for PAX8 inhibitor project, cell-based, plate reader, dry powder, SA7 (AID 743145). In kind it is functional.
Test [35] is described as follows: cytotoxicity in OV-90 ovarian cancer cells, dose response, PAX8 inhibitor project, cell-based, plate reader, dry powder, SA8 (AID 743149). In kind it is functional.
The nature of test [36]: cytotoxicity dependent on PAX8, dose response, cell-based, plate reader, dry powder (AID 743049). In kind it is functional.

“And” between values parts separate entries of the source, which are not always exact repeats. Equal entries are not always repeated. The source made the active and inactive calls.

Chain of Glyceraldehyde-3-phosphate dehydrogenase (P04406 whole entry): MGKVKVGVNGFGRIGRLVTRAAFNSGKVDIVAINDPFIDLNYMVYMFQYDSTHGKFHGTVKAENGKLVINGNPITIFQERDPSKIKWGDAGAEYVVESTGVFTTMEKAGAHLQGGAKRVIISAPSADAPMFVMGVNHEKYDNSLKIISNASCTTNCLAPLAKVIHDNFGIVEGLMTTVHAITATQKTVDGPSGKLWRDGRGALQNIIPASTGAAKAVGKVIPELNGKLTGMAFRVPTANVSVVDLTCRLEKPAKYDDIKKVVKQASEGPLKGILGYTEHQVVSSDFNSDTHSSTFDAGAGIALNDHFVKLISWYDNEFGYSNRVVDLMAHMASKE

As to `CC(=O)Oc1ccccc1C(=O)Nc1ncc([N+](=O)[O-])s1` [NITAZOXANIDE], the IC50 in test [1] and in [2] was > 10 µM (inactive) throughout.
In the case of `CC1CCN(Cc2ccc(NC(=O)C3CCN(c4nnc(-n5cccc5)s4)CC3)cc2)CC1`, the IC50 against Bcl-2-related protein A1 [3] was > 100 µM (not active); in test [4], > 100 µM (not active); on Bcl-2-related protein A1 [5] it was 35.1 µM (active) and > 100 µM (not active); at Bcl-2-related protein A1 [6] it was 20.8 µM (active); against Estrogen receptor beta it was 1.1 µM (not active). In addition, the EC50 is 21.4 µM (active) in test [7] and 61.6 µM (active) in test [8].
Regarding `C=CCNC1=NC(c2ccccc2C(F)(F)F)C(C(=O)OC)=C(C)N1Cc1cccc(C(F)(F)F)c1` (stereo unspecified), in test [9], the IC50 is > 96.6 µM (inactive).
`C=CCn1c(=O)c2c(nc3n2CC(C)CN3Cc2ccccc2)n(C)c1=O` (stereo unspecified): the EC50 on Transthyretin is > 167 µM (inactive).
`COc1ccc(-c2cc3c(=O)n(CC(=O)NCCCN4CCC(Cc5ccccc5)CC4)ncn3n2)cc1`: the EC50 is 9.23 µM (inconclusive) in [10]; 10.1 µM (active) in the test on BJ [11]; 11.4 µM (active) in [12]; 8.06 µM (active) in [13]; 16.4 µM (active) in the test on BJ [14]; 12.9 µM (inconclusive) with BJ [17]. Moreover, the EC50 in test [18] is 8.08 µM (active). Further, the CC50 in test [15] was 34.2 µM (active). The IC50 in [16] was 6.82 µM (active); in test [19], > 20 µM (inactive).
As to `CN[C@H]1CCc2cc(OC)c(OC)c(OC)c2-c2ccc(OC)c(=O)cc21` [DEMECOLCINE], the EC50 in test [10] was < 0.1 µM (active); in [20], 0.078 µM (active); in “cells [21]”, 0.08 µM (active); in test [13], < 0.1 µM (active); in [22], 0.085 µM (active). For the same compound, the IC50 in test [23] is > 80 µM (inactive); in “cells [24]”, > 67.6 µM (inactive); in [25], > 0.834 µM (active). In addition, the AC50 on Paired box protein Pax-8 was < 0.26 µM (active); in test [26], 0.217 µM (active); in [27], 0.0966 µM (active); in [28], 0.113 µM (active); in test [29], 0.234 µM (active); in test [30] it was 0.318 µM (active). Further, the AC50 in test [31] was > 100 µM (inactive); in test [32], 6.35 µM (active); in test [33] it was 0.113 µM (active); in test [34], 0.0615 µM (active); in [35], 0.0488 µM (active); in test [36], 0.0967 µM (active).

By IC50 is commonly meant the concentration that inhibits the measured activity by half. As a reminder, the EC50 is the concentration at which the effect is half-maximal. As a reminder, the AC50 is the concentration at which the activity in the assay is half-maximal.
